Measurements as given in PubChem BioAssay AID330 (DTP/NCI, 2004).
Where “and” joins values, the source holds several entries; their conditions need not be identical. Equal entries are not always repeated. Inconclusive results and toxic doses are left out. How the source made its calls: active means survival T/C of 150% or more; inactive means T/C below 125% in these data.

Test system: P388 leukemia ip, CD2F1 mice, survival T/C
Experiment: NCI In Vivo Anticancer Drug Screen. Data for tumor model P388 Leukemia (intraperitoneal) in CD2F1 (CDF1) mice
Conditions: endpoint: median survival time, higher = longer survival
Summary of the method: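 Mice carrying the transplanted tumor received test compound or vehicle. Survival was recorded in each group, and the value is the treated-group measurement divided by that of the vehicle-treated control group.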

[1] = dose: 50.0 mg/kg/injection, schedule: Q01DX005 (ip), vehicle: saline with Tween-80
[2] = dose: 100.0 mg/kg/injection, schedule: Q01DX005 (ip), vehicle: saline with Tween-80
[3] = dose: 60.0 mg/kg/injection, schedule: Q01DX005 (ip), vehicle: Klucel (hydroxypropylcellulose) (HPC)
[4] = dose: 120.0 mg/kg/injection, schedule: Q01DX005 (ip), vehicle: Klucel (hydroxypropylcellulose) (HPC)
[5] = dose: 240.0 mg/kg/injection, schedule: Q01DX005 (ip), vehicle: Klucel (hydroxypropylcellulose) (HPC)
[6] = dose: 50.0 mg/kg/injection, schedule: Q01DX009 (ip), vehicle: Klucel (hydroxypropylcellulose) (HPC)

Measured: T/C

COC(=O)C12OCC34C(CC5C(C)=C(O)C(=O)CC5(C)C3C(O)C1O)OC(=O)C(OC(=O)C=C(C)C)C24 (stereo unspecified)
inactive: dose: 0.13 mg/kg/injection, schedule: Q01DX009 (ip), vehicle: saline 100 % of control | dose: 0.25 mg/kg/injection, schedule: Q01DX009 (ip), vehicle: saline 100 % of control | dose: 0.5 mg/kg/injection, schedule: Q01DX009 (ip), vehicle: saline 96 % of control | dose: 2.0 mg/kg/injection, schedule: Q01DX009 (ip), vehicle: saline 98 % of control | dose: 4.0 mg/kg/injection, schedule: Q01DX009 (ip), vehicle: saline 100 % of control | dose: 125.0 micrograms/kg/injection, schedule: Q01DX009 (ip), vehicle: saline + alcohol 104 % of control | dose: 250.0 micrograms/kg/injection, schedule: Q01DX009 (ip), vehicle: saline + alcohol 102 % of control | dose: 500.0 micrograms/kg/injection, schedule: Q01DX009 (ip), vehicle: saline + alcohol 104 % of control | dose: 1000.0 micrograms/kg/injection, schedule: Q01DX009 (ip), vehicle: saline + alcohol 95 % of control | dose: 2000.0 micrograms/kg/injection, schedule: Q01DX009 (ip), vehicle: saline + alcohol 93 % of control | dose: 4000.0 micrograms/kg/injection, schedule: Q01DX009 (ip), vehicle: saline + alcohol 102 % of control

COc1ccc([N+](=O)[O-])cc1C[S+](C)C
inactive: dose: 6.25 mg/kg/injection, schedule: Q01DX009 (ip), vehicle: Klucel (hydroxypropylcellulose) (HPC) 108 % of control | dose: 12.5 mg/kg/injection, schedule: Q01DX009 (ip), vehicle: Klucel (hydroxypropylcellulose) (HPC) 107 % of control | dose: 25.0 mg/kg/injection, schedule: Q01DX009 (ip), vehicle: Klucel (hydroxypropylcellulose) (HPC) 112 % of control

C=C(COC(C)=O)[C@H](C)C(=O)C1OCOC(C2CC(=O)NC(=O)C2)[C@@H]1OC(C)=O (stereo partly specified)
inactive: dose: 0.01 mg/kg/injection, schedule: Q01DX009 (ip), vehicle: distilled water + alcohol 102 % of control | dose: 0.03 mg/kg/injection, schedule: Q01DX009 (ip), vehicle: distilled water + alcohol 102 % of control | dose: 0.06 mg/kg/injection, schedule: Q01DX009 (ip), vehicle: distilled water + alcohol 102 % of control | dose: 0.12 mg/kg/injection, schedule: Q01DX009 (ip), vehicle: distilled water + alcohol 109 % of control

COC(=O)C(C)n1c(C)csc1=S (stereo unspecified)
inactive: [1] 103 % of control | [2] 98 % of control

Cc1cc(C)nc(NS(=O)(=O)c2ccc(NC(=O)NCCCl)cc2)n1
inactive: dose: 30.0 mg/kg/injection, schedule: Q01DX005 (ip), vehicle: Klucel (hydroxypropylcellulose) (HPC) 106 % of control | [3] 107 % of control | [4] 100 % of control | [5] 114 % of control

CC(C)(C)C(=O)Nc1ccccc1-c1ccccc1
inactive: dose: 100.0 mg/kg/injection, schedule: Q04DX003 (ip), vehicle: saline 93 % of control | dose: 200.0 mg/kg/injection, schedule: Q04DX003 (ip), vehicle: saline 92 % of control | dose: 400.0 mg/kg/injection, schedule: Q04DX003 (ip), vehicle: saline 94 % of control

NC(=O)c1[nH]c(/N=N/c2nc[nH]c2C(N)=O)nc1N
inactive: [6] 99 % of control | dose: 100.0 mg/kg/injection, schedule: Q01DX009 (ip), vehicle: Klucel (hydroxypropylcellulose) (HPC) 99 % of control | dose: 200.0 mg/kg/injection, schedule: Q01DX009 (ip), vehicle: Klucel (hydroxypropylcellulose) (HPC) 93 % of control

CCNSc1ccccc1
inactive: [6] 106 % of control

CC(C)C(NC(=O)OC(C)(C)C)C(=O)O (stereo unspecified)
inactive: dose: 50.0 mg/kg/injection, schedule: Q01DX005 (ip), vehicle: Klucel (hydroxypropylcellulose) (HPC) 102 % of control | dose: 100.0 mg/kg/injection, schedule: Q01DX005 (ip), vehicle: Klucel (hydroxypropylcellulose) (HPC) 104 % of control | dose: 200.0 mg/kg/injection, schedule: Q01DX005 (ip), vehicle: Klucel (hydroxypropylcellulose) (HPC) 93 % of control

COc1cccc(-c2nc(SC)nc(Cl)c2C#N)c1
inactive: dose: 15.0 mg/kg/injection, schedule: Q01DX005 (ip), vehicle: saline with Tween-80 96 % of control | dose: 30.0 mg/kg/injection, schedule: Q01DX005 (ip), vehicle: saline with Tween-80 86 % of control | dose: 60.0 mg/kg/injection, schedule: Q01DX005 (ip), vehicle: saline with Tween-80 108 % of control and 93 % of control | dose: 120.0 mg/kg/injection, schedule: Q01DX005 (ip), vehicle: saline with Tween-80 113 % of control

COc1ccc(Br)c(C(=O)N2CCc3ccccc32)c1OS(=O)(=O)c1ccc(C)cc1
inactive: dose: 25.0 mg/kg/injection, schedule: Q01DX009 (ip), vehicle: distilled water + Tween-80 98 % of control | dose: 50.0 mg/kg/injection, schedule: Q01DX009 (ip), vehicle: distilled water + Tween-80 100 % of control | dose: 100.0 mg/kg/injection, schedule: Q01DX009 (ip), vehicle: distilled water + Tween-80 91 % of control | dose: 200.0 mg/kg/injection, schedule: Q01DX009 (ip), vehicle: distilled water + Tween-80 89 % of control | dose: 400.0 mg/kg/injection, schedule: Q01DX009 (ip), vehicle: distilled water + Tween-80 95 % of control

COc1ccc(N=C(Cl)c2ccc(Br)cc2)cc1
inactive: [1] 97 % of control | [2] 96 % of control | dose: 200.0 mg/kg/injection, schedule: Q01DX005 (ip), vehicle: saline with Tween-80 96 % of control

CSc1nc2n(Cc3cn(C)c(=O)n(C)c3=O)cc(C)cc-2c(=O)n1
inactive: dose: 100.0 mg/kg/injection, schedule: Q01DX001 (ip), vehicle: saline with Tween-80 96 % of control | dose: 200.0 mg/kg/injection, schedule: Q01DX001 (ip), vehicle: saline with Tween-80 94 % of control | dose: 400.0 mg/kg/injection, schedule: Q01DX001 (ip), vehicle: saline with Tween-80 94 % of control

O=C1CCCCCCCCCCC1C(O)(C(F)(F)F)C(F)(F)F (stereo unspecified)
inactive: dose: 100.0 mg/kg/injection, schedule: Q04DX003 (ip), vehicle: saline with Tween-80 100 % of control | dose: 200.0 mg/kg/injection, schedule: Q04DX003 (ip), vehicle: saline with Tween-80 90 % of control | dose: 400.0 mg/kg/injection, schedule: Q04DX003 (ip), vehicle: saline with Tween-80 100 % of control

CCOc1cc2c(C)c3ccccc3c(C)c2c2ccccc12
inactive: dose: 42.0 mg/kg/injection, schedule: Q01DX009 (ip), vehicle: saline with Tween-80 98 % of control | dose: 50.0 mg/kg/injection, schedule: Q04DX003 (ip), vehicle: other 88 % of control | dose: 84.0 mg/kg/injection, schedule: Q01DX009 (ip), vehicle: saline with Tween-80 94 % of control | dose: 100.0 mg/kg/injection, schedule: Q04DX003 (ip), vehicle: other 86 % of control | dose: 168.0 mg/kg/injection, schedule: Q01DX009 (ip), vehicle: saline with Tween-80 107 % of control | dose: 400.0 mg/kg/injection, schedule: Q04DX003 (ip), vehicle: other 86 % of control

O=C1OC(c2cccc(Cl)c2)=N/C1=C\C=C/c1ccccc1
inactive: dose: 50.0 mg/kg/injection, schedule: Q01DX009 (ip), vehicle: suspension in saline 93 % of control | dose: 100.0 mg/kg/injection, schedule: Q01DX009 (ip), vehicle: suspension in saline 93 % of control

COC(=O)C(C(C)=O)C(=O)c1cc([N+](=O)[O-])cc([N+](=O)[O-])c1 (stereo unspecified)
inactive: dose: 100.0 mg/kg/injection, schedule: Q04DX002 (ip), vehicle: Klucel (hydroxypropylcellulose) (HPC) 98 % of control | dose: 200.0 mg/kg/injection, schedule: Q04DX002 (ip), vehicle: Klucel (hydroxypropylcellulose) (HPC) 100 % of control | dose: 400.0 mg/kg/injection, schedule: Q04DX002 (ip), vehicle: Klucel (hydroxypropylcellulose) (HPC) 97 % of control

CCOC(=NC#N)NOC
inactive: [3] 93 % of control | [4] 98 % of control | [5] 102 % of control
